Source: a compilation of properties of binary mixtures (doi:10.1016/j.molliq.2022.119417)

Experiment: xn = mol fraction of the nth substance listed
Details: 100 kPa

CC[n+]1ccn(C)c1.O=S(=O)([O-])O + OCCO
viscosity [mPa·s]
Details	x1 = 0.125	x1 = 0.143	x1 = 0.167	x1 = 0.2	x1 = 0.25	x1 = 0.33	x1 = 0.5
298.15 K	19	21	24	28	35	52	95
303.15 K	–	17	20	23	29	43	–
308.15 K	13	15	17	19	–	35	62
313.15 K	11	–	14	16	20	–	50
318.15 K	9	11	–	14	18	25	42
323.15 K	8	9	10	12	15	–	35
